Measurements reported in PubChem BioAssay (NCI).
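Grown in 96-well plates, cells were treated for 48 hours with each compound at five concentrations. Insufficient inhibition: endpoint recorded as highest concentration tested. GI50 marks 50% less growth. TGI is the concentration that stops growth completely.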

Tests used:
Assay in all cases: DTP human tumour cell line panel, 48 h
[1] = tested on: OVCAR-3 ovarian
[2] = tested on: UACC-62 melanoma
[3] = tested on: SNB-19 CNS
[4] = tested on: MOLT-4 leukemia
[5] = tested on: LOX IMVI melanoma
[6] = tested on: NCI-H460 lung
[7] = tested on: NCI-H23 lung
[8] = tested on: NCI-H226 lung
[9] = tested on: HS 578T breast

With `N#CC(C#N)=CN1CCN(C(=O)c2ccco2)C1=S` the GI50 [1] was 11.2 µM, the TGI [1] was greater than 100 µM and the GI50 [2] was 8.81 µM. For the same molecule, the TGI [2] was 25.4 µM, the GI50 [3] was 38.7 µM and the TGI [3] was 82 µM. The GI50 [4] was 5.22 µM, the TGI [4] was greater than 100 µM and the GI50 [5] was 3.34 µM. The TGI [5] was greater than 100 µM, the GI50 [6] was 3.29 µM and the TGI [6] was greater than 100 µM. It also gave a GI50 [7] of 5.78 µM and a TGI [7] of 22.5 µM.

`C=C1C(=O)C([Si](C)(C)C)=C2C=C(C)C3(CC3)C12C` (stereo not given) gave a TGI [1] greater than 100 µM, a TGI [2] greater than 100 µM and a TGI [3] greater than 100 µM. It also gave a TGI [4] of 11.9 µM, a TGI [5] of 89 µM and a TGI [6] greater than 100 µM. The TGI [7] was greater than 100 µM, the TGI [8] was greater than 100 µM and the TGI [9] was greater than 100 µM.

With `COc1ccc(/C=C2\OC(=O)C(Cl)=C2c2ccc(OC)cc2)cc1` the TGI [1] was greater than 100 µM, the TGI [2] was greater than 100 µM and the TGI [3] was greater than 100 µM. The TGI [4] was greater than 100 µM, the TGI [5] was greater than 100 µM and the TGI [6] was greater than 100 µM. It also gave a TGI [9] greater than 100 µM.

`CCOC(=O)/C(N=Nc1ccc(-n2c(C)nc3ccccc3c2=O)cc1)=C(/C)O` was tested, and the TGI [1] was 53.1 µM, the TGI [2] was greater than 100 µM and the TGI [3] was greater than 100 µM. The TGI [4] was 64.1 µM, the TGI [5] was greater than 100 µM and the TGI [6] was greater than 100 µM. The TGI [7] was greater than 100 µM, the TGI [8] was 80.1 µM and the TGI [9] was 63.6 µM.

In the case of `Nc1ccn(C2CC(O)C(COP(O)(=S)OC3CC(n4ccc(N)nc4=O)OC3CO)O2)c(=O)n1` (stereo not given), the TGI [1] is reported as greater than 100 µM, the TGI [2] is reported as greater than 100 µM and the TGI [3] is reported as greater than 100 µM. It also gave a TGI [4] greater than 100 µM, a TGI [5] greater than 100 µM and a TGI [6] greater than 100 µM. It also gave a TGI [7] greater than 100 µM and a TGI [9] greater than 100 µM.

`O=c1c2cc(S(=O)(=O)Nc3ccccc3Cl)ccc2ncn1NS(=O)(=O)c1ccc(Br)cc1` gave a TGI [1] greater than 37.5 µM, a TGI [2] greater than 37.5 µM and a TGI [3] greater than 37.5 µM. For the same molecule, the TGI [4] was greater than 37.5 µM, the TGI [5] was greater than 37.5 µM and the TGI [6] was greater than 37.5 µM. It also gave a TGI [7] greater than 37.5 µM, a TGI [8] greater than 37.5 µM and a TGI [9] greater than 37.5 µM.

`COc1ccccc1C1CC(=O)CC(c2ccccc2OC)C12C(=O)NC(=S)NC2=O` (stereo not given) was tested, and the TGI [1] was greater than 100 µM, the TGI [2] was greater than 100 µM and the TGI [3] was greater than 100 µM. The TGI [4] was 95.8 µM, the TGI [5] was greater than 100 µM and the TGI [6] was greater than 100 µM. For the same molecule, the TGI [7] was greater than 100 µM and the TGI [8] was greater than 100 µM.

In the case of `CCOC(=O)c1nc2ccc(C(F)(F)F)cc2nc1NCc1ccc(Cl)c(Cl)c1`, the TGI [1] is reported as 66.2 µM, the TGI [2] is reported as greater than 100 µM and the TGI [3] is reported as 83.2 µM. It also gave a TGI [4] greater than 100 µM, a TGI [5] greater than 100 µM and a TGI [6] greater than 100 µM. For the same molecule, the TGI [7] was greater than 100 µM, the TGI [8] was greater than 100 µM and the TGI [9] was 80.7 µM.

With `Cc1c(C#N)c2nnn(C)c(=O)n2c1-c1ccccc1` the TGI [1] was greater than 100 µM, the TGI [2] was greater than 100 µM and the TGI [3] was greater than 100 µM. It also gave a TGI [6] greater than 100 µM, a TGI [7] greater than 100 µM and a TGI [8] greater than 100 µM.

`COc1ccc2c(c1)CC[C@@H]1[C@@H]2CC[C@]2(C)C(=O)C3(CCCCC3)C[C@@H]12` was tested, and the GI50 [1] was greater than 100 µM, the TGI [1] was greater than 100 µM and the GI50 [2] was greater than 100 µM. It also gave a TGI [2] greater than 100 µM, a GI50 [3] greater than 100 µM and a TGI [3] greater than 100 µM. For the same molecule, the GI50 [4] was greater than 100 µM, the TGI [4] was greater than 100 µM and the GI50 [5] was greater than 100 µM. For the same molecule, the TGI [5] was greater than 100 µM, the GI50 [7] was greater than 100 µM and the TGI [7] was greater than 100 µM. It also gave a GI50 [8] greater than 100 µM, a TGI [8] greater than 100 µM and a GI50 [9] of 88.1 µM. For the same molecule, the TGI [9] was greater than 100 µM.
